Test results taken from PubChem BioAssay AID1259407 (Chemical Carcinogenesis Research Information System (CCRIS), 2018).
Calls of active or inactive are those of the source. No rule for the calls is given here.

Test system: CCRIS mutagenicity, Ames/micronucleus/aberration tests
Experiment: CCRIS mutagenicity studies

## ClCc1ccccc1
End Point: IN VITRO CHROMOSOMAL ABERRATIONS, Test System: CHL CELLS, Metabolic Activation: RAT, LIVER, S-9, SODIUM PHENOBARBITAL AND 5,6-BENZOFLAVONE
  mutagenic call: active; positive (structural changes)
End Point: IN VITRO MICRONUCLEUS, Test System: CHL/IU CELLS, Metabolic Activation: NONE
  mutagenic call: active; positive
Test System: AMES SALMONELLA TYPHIMURIUM, Strain/Indicator: TA97, Metabolic Activation: HAMSTER, LIVER, S-9, AROCLOR 1254 (10%), Method: PREINCUBATION
  mutagenic call: inactive; negative
Test System: AMES SALMONELLA TYPHIMURIUM, Strain/Indicator: TA97, Metabolic Activation: HAMSTER, LIVER, S-9, AROCLOR 1254 (30%), Method: PREINCUBATION
  mutagenic call: inactive; negative
Test System: AMES SALMONELLA TYPHIMURIUM, Strain/Indicator: TA97, Metabolic Activation: NONE, Method: PREINCUBATION
  mutagenic call: inactive; negative
Test System: AMES SALMONELLA TYPHIMURIUM, Strain/Indicator: TA97, Metabolic Activation: RAT, LIVER, S-9, AROCLOR 1254 (10%), Method: PREINCUBATION
  mutagenic call: inactive; negative
Test System: AMES SALMONELLA TYPHIMURIUM, Strain/Indicator: TA97, Metabolic Activation: RAT, LIVER, S-9, AROCLOR 1254 (30%), Method: PREINCUBATION
  mutagenic call: inactive; negative
Test System: AMES SALMONELLA TYPHIMURIUM, Strain/Indicator: TA98, Metabolic Activation: HAMSTER, LIVER, S-9, AROCLOR 1254 (10%), Method: PREINCUBATION
  mutagenic call: inactive; negative
Test System: AMES SALMONELLA TYPHIMURIUM, Strain/Indicator: TA98, Metabolic Activation: HAMSTER, LIVER, S-9, AROCLOR 1254 (30%), Method: PREINCUBATION
  mutagenic call: inactive; negative
Test System: AMES SALMONELLA TYPHIMURIUM, Strain/Indicator: TA98, Metabolic Activation: NONE, Method: FLUCTUATION (MICROTITER)
  mutagenic call: inactive; negative
Test System: AMES SALMONELLA TYPHIMURIUM, Strain/Indicator: TA98, Metabolic Activation: NONE, Method: PREINCUBATION
  mutagenic call: inactive; negative
Test System: AMES SALMONELLA TYPHIMURIUM, Strain/Indicator: TA98, Metabolic Activation: RAT LIVER S-9, AROCLOR 1254, Method: FLUCTUATION (MICROTITER)
  mutagenic call: inactive; negative
Test System: AMES SALMONELLA TYPHIMURIUM, Strain/Indicator: TA98, Metabolic Activation: RAT LIVER S-9, PHENOBARBITAL AND BETA-NAPHTHOFLAVONE, Method: PREINCUBATION
  mutagenic call: inactive; negative
Test System: AMES SALMONELLA TYPHIMURIUM, Strain/Indicator: TA98, Metabolic Activation: RAT, LIVER, S-9, AROCLOR 1254 (10%), Method: PREINCUBATION
  mutagenic call: inactive; negative
Test System: AMES SALMONELLA TYPHIMURIUM, Strain/Indicator: TA98, Metabolic Activation: RAT, LIVER, S-9, AROCLOR 1254 (30%), Method: PREINCUBATION
  mutagenic call: inactive; negative
Test System: AMES SALMONELLA TYPHIMURIUM, Strain/Indicator: TA100, Metabolic Activation: HAMSTER, LIVER, S-9, AROCLOR 1254 (10 OR 30%), Method: PREINCUBATION
  mutagenic call: inactive; negative
Test System: AMES SALMONELLA TYPHIMURIUM, Strain/Indicator: TA100, Metabolic Activation: NONE, Method: STANDARD PLATE
  mutagenic call: inactive; negative
Test System: AMES SALMONELLA TYPHIMURIUM, Strain/Indicator: TA100, Metabolic Activation: RAT, LIVER, S-9, AROCLOR 1254 (10%), Method: PREINCUBATION
  mutagenic call: inactive; negative
Test System: AMES SALMONELLA TYPHIMURIUM, Strain/Indicator: TA100, Metabolic Activation: RAT, LIVER, S-9, AROCLOR 1254 (30%), Method: PREINCUBATION
  mutagenic call: inactive; negative
Test System: AMES SALMONELLA TYPHIMURIUM, Strain/Indicator: TA100, Method: STANDARD PLATE
  mutagenic call: active; positive
Test System: AMES SALMONELLA TYPHIMURIUM, Strain/Indicator: TA1535, Metabolic Activation: HAMSTER, LIVER, S-9, AROCLOR 1254 (10%), Method: PREINCUBATION
  mutagenic call: inactive; negative
Test System: AMES SALMONELLA TYPHIMURIUM, Strain/Indicator: TA1535, Metabolic Activation: HAMSTER, LIVER, S-9, AROCLOR 1254 (30%), Method: PREINCUBATION
  mutagenic call: inactive; negative
Test System: AMES SALMONELLA TYPHIMURIUM, Strain/Indicator: TA1535, Metabolic Activation: NONE, Method: PREINCUBATION
  mutagenic call: inactive; negative
Test System: AMES SALMONELLA TYPHIMURIUM, Strain/Indicator: TA1535, Metabolic Activation: RAT LIVER S-9, PHENOBARBITAL AND BETA-NAPHTHOFLAVONE, Method: PREINCUBATION
  mutagenic call: inactive; negative
Test System: AMES SALMONELLA TYPHIMURIUM, Strain/Indicator: TA1535, Metabolic Activation: RAT, LIVER, S-9, AROCLOR 1254 (10%), Method: PREINCUBATION
  mutagenic call: inactive; negative
Test System: AMES SALMONELLA TYPHIMURIUM, Strain/Indicator: TA1535, Metabolic Activation: RAT, LIVER, S-9, AROCLOR 1254 (30%), Method: PREINCUBATION
  mutagenic call: inactive; negative
Test System: AMES SALMONELLA TYPHIMURIUM, Strain/Indicator: TA1537, Metabolic Activation: HAMSTER, LIVER, S-9, AROCLOR 1254 (10%), Method: PREINCUBATION
  mutagenic call: inactive; negative
Test System: AMES SALMONELLA TYPHIMURIUM, Strain/Indicator: TA1537, Metabolic Activation: NONE, Method: FLUCTUATION (MICROTITER)
  mutagenic call: inactive; negative
Test System: AMES SALMONELLA TYPHIMURIUM, Strain/Indicator: TA1537, Metabolic Activation: NONE, Method: PREINCUBATION
  mutagenic call: inactive; negative
Test System: AMES SALMONELLA TYPHIMURIUM, Strain/Indicator: TA1537, Metabolic Activation: RAT LIVER S-9, AROCLOR 1254, Method: FLUCTUATION (MICROTITER)
  mutagenic call: inactive; negative
Test System: AMES SALMONELLA TYPHIMURIUM, Strain/Indicator: TA1537, Metabolic Activation: RAT LIVER S-9, PHENOBARBITAL AND BETA-NAPHTHOFLAVONE, Method: PREINCUBATION
  mutagenic call: inactive; negative
Test System: AMES SALMONELLA TYPHIMURIUM, Strain/Indicator: TA1537, Metabolic Activation: RAT, LIVER, S-9, AROCLOR 1254 (10%), Method: PREINCUBATION
  mutagenic call: inactive; negative
Test System: AMES SALMONELLA TYPHIMURIUM, Strain/Indicator: TA7001, Metabolic Activation: NONE, Method: FLUCTUATION (MICROTITER)
  mutagenic call: inactive; negative
Test System: AMES SALMONELLA TYPHIMURIUM, Strain/Indicator: TA7001, Metabolic Activation: RAT LIVER S-9, AROCLOR 1254, Method: FLUCTUATION (MICROTITER)
  mutagenic call: inactive; negative
Test System: AMES SALMONELLA TYPHIMURIUM, Strain/Indicator: TA7002, Metabolic Activation: NONE, Method: FLUCTUATION (MICROTITER)
  mutagenic call: inactive; negative
Test System: AMES SALMONELLA TYPHIMURIUM, Strain/Indicator: TA7002, Metabolic Activation: RAT LIVER S-9, AROCLOR 1254, Method: FLUCTUATION (MICROTITER)
  mutagenic call: inactive; negative
Test System: AMES SALMONELLA TYPHIMURIUM, Strain/Indicator: TA7003, Metabolic Activation: NONE, Method: FLUCTUATION (MICROTITER)
  mutagenic call: inactive; negative
Test System: AMES SALMONELLA TYPHIMURIUM, Strain/Indicator: TA7003, Metabolic Activation: RAT LIVER S-9, AROCLOR 1254, Method: FLUCTUATION (MICROTITER)
  mutagenic call: inactive; negative
Test System: AMES SALMONELLA TYPHIMURIUM, Strain/Indicator: TA7004, Metabolic Activation: NONE, Method: FLUCTUATION (MICROTITER)
  mutagenic call: active; positive
Test System: AMES SALMONELLA TYPHIMURIUM, Strain/Indicator: TA7004, Metabolic Activation: RAT LIVER S-9, AROCLOR 1254, Method: FLUCTUATION (MICROTITER)
  mutagenic call: inactive; negative
Test System: AMES SALMONELLA TYPHIMURIUM, Strain/Indicator: TA7005, Metabolic Activation: NONE, Method: FLUCTUATION (MICROTITER)
  mutagenic call: active; positive
Test System: AMES SALMONELLA TYPHIMURIUM, Strain/Indicator: TA7005, Metabolic Activation: RAT LIVER S-9, AROCLOR 1254, Method: FLUCTUATION (MICROTITER)
  mutagenic call: inactive; negative
Test System: AMES SALMONELLA TYPHIMURIUM, Strain/Indicator: TA7006, Metabolic Activation: NONE, Method: FLUCTUATION (MICROTITER)
  mutagenic call: inactive; negative
Test System: AMES SALMONELLA TYPHIMURIUM, Strain/Indicator: TA7006, Metabolic Activation: RAT LIVER S-9, AROCLOR 1254, Method: FLUCTUATION (MICROTITER)
  mutagenic call: inactive; negative
Test System: Ames Salmonella typhimurium, Strain/Indicator: TA98, Metabolic Activation: None, Method: Direct plate-incorporation
  mutagenic call: inactive; negative (no data given in original article)
Test System: Ames Salmonella typhimurium, Strain/Indicator: TA98, Metabolic Activation: None, Method: Direct plate-incorporation using closed container
  mutagenic call: inactive; negative, moderate toxicity at highest dose.
Test System: Ames Salmonella typhimurium, Strain/Indicator: TA98, Metabolic Activation: None, Method: Vaporization-diffusion
  mutagenic call: inactive; negative
Test System: Ames Salmonella typhimurium, Strain/Indicator: TA98, Metabolic Activation: Rat, liver, S-9, Aroclor 1254, Method: Direct plate-incorporation
  mutagenic call: inactive; negative (no data given in original article)
Test System: Ames Salmonella typhimurium, Strain/Indicator: TA98, Metabolic Activation: Rat, liver, S-9, Aroclor 1254, Method: Direct plate-incorporation using closed container
  mutagenic call: inactive; negative, moderate toxicity at highest dose.
Test System: Ames Salmonella typhimurium, Strain/Indicator: TA98, Metabolic Activation: Rat, liver, S-9, Aroclor 1254, Method: Preincubation
  mutagenic call: inactive; negative, strain also tested without s-9, but moderate to high toxicity was obse
Test System: Ames Salmonella typhimurium, Strain/Indicator: TA98, Metabolic Activation: Rat, liver, S-9, Aroclor 1254, Method: Vaporization-diffusion
  mutagenic call: inactive; negative
Test System: Ames Salmonella typhimurium, Strain/Indicator: TA100, Metabolic Activation: None, Method: Direct plate-incorporation
  mutagenic call: inactive; negative
Test System: Ames Salmonella typhimurium, Strain/Indicator: TA100, Metabolic Activation: None, Method: Vaporization-diffusion
  mutagenic call: active; positive at all doses, effect of duration of exposure evident, with only 3-hr ex
Test System: Ames Salmonella typhimurium, Strain/Indicator: TA100, Metabolic Activation: Rat, liver, S-9, Aroclor 1254, Method: Direct plate-incorporation
  mutagenic call: active; positive (weak but dose related response; in previous test, higher dose of 2,500
Test System: Ames Salmonella typhimurium, Strain/Indicator: TA100, Metabolic Activation: Rat, liver, S-9, Aroclor 1254, Method: Preincubation
  mutagenic call: active; positive, weak, dose-related increase in number of revertants noted. strain also
Test System: Ames Salmonella typhimurium, Strain/Indicator: TA100, Metabolic Activation: Rat, liver, S-9, Aroclor 1254, Method: Vaporization-diffusion
  mutagenic call: active; positive at all doses, effect of duration of exposure evident, with only 3-hr ex
Test System: Ames Salmonella typhimurium, Strain/Sex: TA100, Metabolic Activation: None, Method: Direct plate-incorporation using closed container
  mutagenic call: active; positive, moderate toxicity at highest dose.
Test System: Ames Salmonella typhimurium, Strain/Sex: TA100, Metabolic Activation: Rat, liver, S-9, Aroclor 1254, Method: Direct plate-incorporation using closed container
  mutagenic call: active; positive, moderate toxicity at highest dose.
Test System: UDS HUMAN FIBROBLASTS, Strain/Indicator: THY INCORP (NON-S-PHASE), Metabolic Activation: NONE, Method: LIQUID SCINTILLATION COUNTING
  mutagenic call: active; positive
